This is an account of results in patent US20230348450A1, “CARBOXYLIC ACID-CONTAINING COMPOUNDS AS MODULATORS OF BIS-PHOSPHOGLYCERATE MUTASE FOR THE TREATMENT OF SICKLE CELL DISEASE” (Genzyme Corporation, priority 2020, published 2023).

SMILES strings stand for the structures.

The target in this assay is hBPGM (Homo sapiens (Human), UniProt P07738). The assay is described as follows: BPGM Synthase Assay. Conditions: Table 6 additional results; read-out: huBPGM: synthase Enzyme IC50. It counts as biochemical. On the procedure: Example B1. BPGM Synthase Assay
Sequence of hBPGM (P07738 whole entry, looked up): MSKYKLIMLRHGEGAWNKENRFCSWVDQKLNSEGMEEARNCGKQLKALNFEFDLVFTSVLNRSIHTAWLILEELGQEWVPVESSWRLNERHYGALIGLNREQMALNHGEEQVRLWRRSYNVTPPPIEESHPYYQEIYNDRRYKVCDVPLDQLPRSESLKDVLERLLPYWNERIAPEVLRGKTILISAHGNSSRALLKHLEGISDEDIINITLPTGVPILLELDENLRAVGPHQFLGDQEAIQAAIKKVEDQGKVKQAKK
The following materials were used in this assay: deionized water; Bisphosphoglycerate mutase (BPGM; Standard Buffer: 50 mM Tris, 0.01% Tween 20, pH 7.4); BPGM Reaction Buffer (50 mM Tris, 0.01% Tween 20, 3.23 mM KH2PO4, pH 7.4); dithiothreitol (DTT; Stock solution: 100 mM in Standard Buffer); 384-Well Black Assay Plate (Corning, P/N 3575); DMSO; BPGM Stock Solution (500 nM in BPGM Standard Buffer); Glyceraldehyde 3-phosphate dehydrogenase (GAPDH; Stock Solution: 40 U/mL in 20 mM Tris-HCL Buffer with 20% Glycerol, 1 mM EDTA, 1 mM DTT); Glyceraldehyde 3-phosphate (GAP; Stock Solution: 20 mM in BPGM Standard Buffer); 3-PG Stock Solution (500 μM in BPGM Standard Buffer); Nicotinamide adenine dinucleotide (NAD; Stock Solution: 50 mM in BPGM Standard Buffer); Koningic Acid (1 mM Stock in DMSO); Resazurin Stock Solution (10 mM in DMSO); Diaphorase Stock Solution (40 U/mL in BPGM Standard Buffer); DTT Reaction Buffer (1 mM DTT in BPGM Reaction Buffer); Enzyme Solution (5 nM BPGM, 0.4 U/mL GAPDH in DTT Reaction Buffer); GAPDH Solution (0.4 U/mL GAPDH in DTT Reaction Buffer); Substrate Solution (2 mM NAD, 20 μM 3PG, 800 μM GAP in DTT Reaction Buffer); and Resazurin Solution (5 U/mL Diaphorase, 500 μM Resazurin in BPGM Standard Buffer).
To the assay plate was added Enzyme Solution (20 uL) to columns 2-22 and 24 of the assay plate. To columns 1 and 23 was added GAPDH Solution (20 uL). A separate compound plate was prepared at the desired concentrations and all wells were normalized with 5% DMSO. The compound plate was incubated for 30 minutes at RT. Next, the substrate solution (20 μL) was dispensed to all reaction wells and the plate was incubated for 60 minutes at RT. Koningic acid (1 μL) was added and the plate was incubated for 10 minutes at RT. During this time period, the NADH fluorescence was read at ex: 360/em: 460. Next, Resazurin Solution (10 μL) was added to all reaction wells and the plate was incubated for 30 minutes at RT. The resorufin fluorescence was then read at ex:544/em:590.
What is called IC50 is the point on the concentration scale where inhibition reaches its midpoint. Regarding `Cc1nc(CC2CCCCC2)sc1-c1cccc(-c2ccc(C(=O)O)c(O)c2)c1` [Example 313], the IC50 is 9.1 µM.

For the molecule `Cc1nc(CCc2ccccc2)sc1-c1cccc(-c2ccc(C(=O)O)c(O)c2)c1` [Example 109], the concentration for half-maximal inhibition (IC50) came to 8.1 µM.

As for `Cc1nc(Cc2ccccc2C(F)(F)F)sc1-c1cccc(-c2ccc(C(=O)O)c(O)c2)c1` [Example 320], the IC50 came to 7 µM.

For the molecule `Cc1nc(COC(=O)N(C)C)sc1-c1cccc(-c2ccc(C(=O)O)cc2)n1` [Example 64], the 50% inhibitory concentration (IC50) came to 0.91 µM.

Take `Cc1nc(COc2cnn(C(C)(C)C)c2)sc1-c1cccc(-c2ccc(C(=O)O)cc2)n1` [Example 59]: the half-inhibitory concentration (IC50) is 0.97 µM.

Take `Cc1nc(C)c(-c2cccc(-c3ccc(C(=O)O)c(O)c3)c2)s1` [Example 329]: the IC50 stood at 2.3 µM.

As for `CC(=O)NCCc1nc(C)c(-c2cccc(-c3ccc(C(=O)O)c(O)c3)c2)s1` [Example 258], the IC50 worked out at 11 µM.

For `Cc1nc(COc2ncccn2)sc1-c1cccc(-c2ccc(C(=O)NCC(=O)N3CCC(C(=O)O)C3)cc2)n1` (stereo not drawn) [Example 91], the IC50 was more than 25 µM.

`Cc1nc(C)c(-c2cccc(-c3ccc(C(=O)O)c(O)c3)n2)s1` [Example 302]: the IC50 turned out to be 1.2 µM.

On to `Cc1ccc(C#N)c(OCCn2cc(-c3cccc(-c4ccc(C(=O)O)c(O)c4)c3)cn2)n1` [Example 111], for which the IC50 amounted to 15 µM.

Take `Cc1ccc(C#N)c(OCCn2cc(-c3cccc(-c4ccc(C(=O)O)c(O)c4)c3)c(C)n2)n1` [Example 330]: the concentration for half-maximal inhibition (IC50) turned out to be 6.6 µM.

Regarding `Cc1nc(COCC2CCCCO2)sc1-c1cccc(-c2ccc(C(=O)O)cc2)c1` (stereo not drawn) [Example 45], the IC50 is 1.4 µM.

As to `Cc1nc(COc2ccc(F)cn2)sc1-c1cccc(-c2ccc(C(=O)O)c(C(F)F)c2)c1` [Example 29], the 50% inhibitory concentration (IC50) is 1.8 µM.

As for `Cc1nc(Cn2c(C)ccc(C#N)c2=O)sc1-c1cccc(-c2ccc(C(=O)O)c(O)c2)c1` [Example 295], the half-maximal inhibitory concentration (IC50) stood at 0.6 µM.

On to `Cc1nc(CO)sc1-c1cccc(-c2ccc(C(=O)NCC(=O)N3CCC(C(=O)O)CC3)cc2)n1` [Example 89], for which the 50% inhibitory concentration (IC50) is more than 25 µM.

As for `Cc1nc(Cc2ccccc2F)sc1-c1cccc(-c2ccc(C(=O)O)c(O)c2)c1` [Example 104], the half-inhibitory concentration (IC50) came out at 1.5 µM.

As to `Cc1nc(C)c(-c2cccc(-c3ccc(C(=O)O)c(C(F)(F)F)c3)c2)s1` [Example 314], the IC50 stood at 100 µM.

Regarding `Cc1nc(COc2ncccn2)sc1-c1cccc(-c2cnc(C(=O)O)nc2)n1` [Example 85], the IC50 was more than 25 µM.

`Cc1nc(COc2ncccn2)sc1-c1cccc(-c2ccc3c(C(=O)O)c[nH]c3c2)n1` [Example 334]: the 50% inhibitory concentration (IC50) came out at 1.7 µM.

On to `Cc1ccc(C#N)c(OCCn2cc(-c3cccc(-c4ccc(C(=O)O)c(O)c4)c3)cn2)n1` [Example 110], for which the concentration for half-maximal inhibition (IC50) turned out to be 8.8 µM.

For `Cc1nc(C)c(-c2ccc(C)c(-c3ccc(C(=O)O)cc3)c2)s1` [Example 305], the half-inhibitory concentration (IC50) turned out to be 82 µM.

Consider `Cc1ccc(C#N)c(OCC(=O)N2CC(c3cccc(-c4ccc(C(=O)O)cc4)c3)C2)n1` [Example 322], for which the IC50 was more than 250 µM.

As to `Cc1nc(CN2CCCCC2)sc1-c1cccc(-c2ccc(C(=O)O)c(O)c2)c1` [Example 298], the IC50 is 5 µM.

`Cc1nc(C)c(-c2csc(-c3ccc(O)c(C(=O)O)c3)n2)s1` [Example 321]: the 50% inhibitory concentration (IC50) was found to be 7.3 µM.

Turning to `Cc1nc(COC2CCCCO2)sc1-c1cccc(-c2ccc(C(=O)O)cc2)n1` (stereo not drawn) [Example 55], the IC50 was 0.38 µM.

Turning to `Cc1nc(C)c(-c2csc(-c3ccc(C(=O)O)cc3)n2)s1` [Example 291], the half-maximal inhibitory concentration (IC50) came out at 3.3 µM.

For `Cc1nc(C)c(CCOc2ccc(C(=O)O)c(O)c2)s1` [Example 336], the IC50 was more than 25 µM.

Regarding `Cc1nc(COc2ccc(F)cn2)sc1-c1ccc(-c2ccc(C(=O)O)c(O)c2)s1` [Example 341], the IC50 worked out at 4.1 µM.

Turning to `Cc1nc(C)c(-c2cc(-c3ccc(C(=O)O)cc3)ccc2O)s1` [Example 301], the 50% inhibitory concentration (IC50) was more than 250 µM.

Regarding `Cc1nc(COc2ccccn2)sc1-c1cccc(-c2ccc(C(=O)O)cc2)n1` [Example 57], the half-maximal inhibitory concentration (IC50) was more than 25 µM.

On to `Cc1nc(C)c(-c2cccc(-c3ccc(O)c(C(=O)O)c3)c2)s1` [Example 318], for which the IC50 came to 4.8 µM.

Turning to `Cc1nc(COc2ncccn2)sc1-c1cccc(-c2ccc(C(=O)N[C@@H](C(=O)O)c3ccccc3)cc2)n1` [Example 36], the half-inhibitory concentration (IC50) was found to be 2.7 µM.

Turning to `Cc1nc(COc2ccccn2)sc1-c1ccc(-c2ccc(C(=O)O)c(O)c2)s1` [Example 340], the concentration for half-maximal inhibition (IC50) is 3.6 µM.

`Cc1nc(COc2ccc(F)cn2)sc1-c1cnn(-c2ccc(C(=O)O)c(O)c2)c1` [Example 20]: the IC50 amounted to 2.1 µM.

As for `Cc1nc(CN2CCOCC2)sc1-c1cccc(-c2ccc(C(=O)O)c(O)c2)c1` [Example 296], the half-inhibitory concentration (IC50) worked out at 3.7 µM.

As for `Cc1nc(COc2ncccn2)sc1-c1cccc(-c2ccc(C(=O)O)cc2C(C)C)n1` [Example 28], the IC50 was more than 25 µM.

With `Cc1ccc(C#N)c(OCCc2nc(C)c(-c3cccc(-c4ccc(C(=O)O)c(O)c4)c3)s2)n1` [Example 107], the IC50 is 1.9 µM.

On to `Cc1nc(C)c(-c2cncc(-c3ccc(C(=O)O)c(O)c3)c2)s1` [Example 299], for which the IC50 worked out at 25 µM.

Turning to `Cc1nc(C(=O)O)sc1-c1cccc(-c2cc(F)c3[nH]nnc3c2F)n1` [Example 342], the half-maximal inhibitory concentration (IC50) was 1.9 µM.

With `Cc1nc(COc2ncccn2)sc1-c1nc(-c2ccc(C(=O)O)cc2)cs1` [Example 34], the IC50 amounted to 0.34 µM.

As to `Cc1nc(COC2CCOC2)sc1-c1cccc(-c2ccc(C(=O)O)cc2)c1` (stereo not drawn) [Example 44], the IC50 worked out at 1.9 µM.

`Cc1cc(-c2ccc(C(=O)O)cc2)cc(-c2sc(C)nc2C)c1` [Example 300]: the half-inhibitory concentration (IC50) came out at 160 µM.

Take `Cc1nc(COc2ncccn2)sc1-c1cccc(-c2ccc(C(=O)NC(CC(=O)O)c3ccccc3)cc2)n1` (stereo not drawn) [Example 35]: the concentration for half-maximal inhibition (IC50) was 2.6 µM.

For the molecule `Cc1nc(C)c(-c2coc(-c3ccc(C(=O)O)c(O)c3)n2)s1` [Example 271], the half-inhibitory concentration (IC50) was 8 µM.

`Cc1nc(C(C)C)sc1-c1cccc(-c2ccc(C(=O)O)c(O)c2)c1` [Example 324]: the half-maximal inhibitory concentration (IC50) came out at 2.3 µM.

As to `Cc1nc(Cc2ccccn2)sc1-c1cccc(-c2ccc(C(=O)O)cc2)c1` [Example 287], the IC50 amounted to 0.91 µM.

Regarding `Cc1ccc(C#N)c(OCC(=O)N/N=C/c2cccc(-c3cc(O)c(C(=O)O)cc3F)c2)n1` [Example 332], the IC50 came out at 0.45 µM.

As for `Cc1nc(COc2ncccn2)sc1-c1cccc(-c2cc(C(=O)O)co2)n1` [Example 39], the IC50 was 18 µM.

Consider `Cc1nc(C)c(-c2nsc(-c3cc(O)c(C(=O)O)cc3F)n2)s1` [Example 205], for which the IC50 came out at 1.1 µM.

Take `Cc1nc(COc2ncccn2)sc1-c1cccc(-c2ccc(C(=O)NCC(=O)N3CCC(C(=O)O)CC3)cc2)n1` [Example 90]: the IC50 was more than 25 µM.

As to `Cc1cc(C(=O)O)cc(C)c1-c1cccc(-c2sc(COc3ncccn3)nc2C)n1` [Example 31], the IC50 is more than 25 µM.

With `Cc1nc(COc2ccc(F)cn2)sc1-c1cccc(-c2ccc(C(=O)O)c(C(F)F)c2)n1` [Example 22], the IC50 is 0.29 µM.

Consider `Cc1nc(COc2ccccn2)sc1-c1cccc(-c2ccc(C(=O)O)nc2)c1` [Example 58], for which the half-inhibitory concentration (IC50) was more than 25 µM.

Regarding `COC(=O)NCc1nc(C)c(-c2csc(-c3ccc(C(=O)NS(=O)(=O)c4cccc(OCC(=O)O)c4)cc3)n2)s1` [Example 331], the concentration for half-maximal inhibition (IC50) was more than 25 µM.

Consider `Cc1nc(C)c(N2CCN(c3ccc(C(=O)O)c(O)c3)C2=O)s1` [Example 339], for which the concentration for half-maximal inhibition (IC50) was more than 25 µM.

As to `Cc1nc(COc2ccc(F)cn2)sc1-c1ccn(-c2ccc(C(=O)O)cc2)n1` [Example 18], the half-maximal inhibitory concentration (IC50) is 0.65 µM.

Regarding `Cc1nc(Cn2cc(C(F)(F)F)cn2)sc1-c1cccc(-c2ccc(C(=O)O)cc2)n1` [Example 60], the IC50 worked out at 0.76 µM.

As for `Cc1nc(C)c(-c2cccc(-c3ccc(C(=O)O)cc3)c2)s1` [Example 326], the half-maximal inhibitory concentration (IC50) was found to be 6.4 µM.

`COC(=O)NCc1ccc(-c2csc(-c3cc(O)c(C(=O)O)cc3F)n2)c(C)n1` [Example 206]: the IC50 was determined as 2 µM.

Regarding `CN(C)C(=O)OCC1CCN(c2cccc(-c3ccc(C(=O)O)cc3)n2)CC1` [Example 25], the IC50 was more than 25 µM.

In the case of `Cc1nc(CN2CCOCC2=O)sc1-c1cccc(-c2ccc(C(=O)O)c(O)c2)c1` [Example 261], the IC50 came to 20 µM.

Take `Cc1ccc(C#N)c(OCc2nc(C)c(-c3cccc(-c4ccc(C(=O)O)c(O)c4)c3)s2)n1` [Example 268]: the IC50 is 1.2 µM.

For `COC(=O)NCc1nc(C)c(-c2cc(-c3ccc(C(=O)O)c(O)c3)sn2)s1` [Example 157], the IC50 is 0.8 µM.
